Results taken from patent US20210380547A1, “UREA DERIVATIVES FOR TREATING AND/OR PREVENTING CANCER” (CENTRE NATIONAL DE LA RECHERCHE SCIENTIFIQUE, priority 2018, published 2021).
Entries after “also recorded” stand apart in the source; their conditions may differ.

How the values were obtained:
CAL27RR = test: XTT cell viability assay, CAL27RR (cisplatin-resistant); assay type: cell-based, human
Protocol: A, B: Naive (Cal27, A), and cisplatine-resistant (Cal27R, B) Cal27 cells, were treated with compound #1 or cisplatine (1 to 10 μM) for 48 hr. Cell viability was measured by XTT assays;
C, D: Cal27 (C), cal27R (D), were treated with 2.5 μM compound #1, 2.5 μM cisplatin for 24 h to 96 h. The metabolism of cells was measured by XTT assay.
(§1) Fifty microliters of sodium 3′-[1-phenylaminocarbonyl)-3,4-tetrazolium]-bis(4-methoxy-6-nitro) benzene sulfonic acid hydrate (XTT) reagent was added to each well. The assay is based on the cleavage of the yellow tetrazolium salt XTT to form an orange formazan dye by metabolically active cells. The absorbance of the formazan product, reflecting cell viability, was measured at 490 nm. Each assay was performed in quadruplicate.
(§2) Compounds #1-#14 have been assayed as potential anti-proliferative agents against a panel of human breast head and neck, and kidney tumor cells and hematological malignancies, selected on the basis of their aggressiveness (e.g. incurable triple-negative breast cancer cells: MDA-MB-231; kidney ccRCC cells: RCC4, A498 and 786-O and 786R; head and neck cancer cells: CAL33, CAL33RR, CAL27, and CAL27RR; acute myeloid cell lines: OCI-AML2, OCI-AML3, MolM13, and MolM14; myelodysplastic cell line: SM1; and chronic myeloid cell line: CML). All these cell lines share as common denominator the expression of CXCR1 and CXCR2. The EC50 values have been measured by a XTT colorimetric assay, and compared to those of SB-225002, used as a reference; the results are listed in Table 1.

OCI-AML3 = test: XTT cell viability assay, OCI-AML3; assay type: cell-based, human; details: Homo sapiens, OCI-AML-3; XTT assay (48 h); standard deviation of 10%
Protocol: as §1, §2

MolM14 = test: XTT cell viability assay, MolM14; assay type: cell-based, human; details: Homo sapiens, MOLM-14; XTT assay (48 h); standard deviation of 10%; read-out: EC50 (μM) AML MolM14
Protocol: as §1, §2

[1] = tested on: malignant (ccRCC and hematological) cells; test: FACS analysis of cell death markers (AV, PI), malignant cells; assay type: cell-based, human; details: 5 μM, 48 h
Protocol: FIG. 1: Observation by FACS analyses of early (Annexin AV) and late (Propidium Iodide, PI) apoptosis markers expressed by healthy and malignant cells after treatment with compounds #1 and #2 at 5 μM. CT: negative control.
(§3) Apoptosis analysis: After stimulation, cells were washed with ice-cold PBS and were stained with the annexin-V-fluos staining kit (Roche, Meylan, France) according to the manufacturer's procedure. Fluorescence was measured by using the FL2 (AV) and FL3 (propidium iodide, PI) channels of a fluorescence-activated cell sorter apparatus (Calibur cytometer).
To complete these XTT assays, malignant (ccRCC and hematological) and healthy (human fibroblasts FHN) cells have been grown with compounds #1 or #2, and after 48h the expression of cell death markers (AV and PI) has been quantified by FACS analyses (FIG. 1).

caspase-3 activity = test: Caspase-3 activity assay; assay type: cell-based, human; details: 2.5 μM, 48 hr, 786-O and 786-R
Protocol: F: Cells were treated with 2.5 and 5 μM compound #1, with 2.5 μM sunitinib for 48 hr. Cells were lysed in caspase buffer and caspase-3 activity was evaluated using 0.2 mM Ac-DEVD-AMC as substrates. Results expressed as arbitrary units (A.U.) and are means±Standard deviation of 3 independent experiments;
Caspase 3 activity was assessed in quadruplicates using z-DEVD-AMC as substrate and fluorescence were assessed.

[2] = tested on: primary normal kidney cells (15S); test: XTT cell viability, primary normal kidney cells; assay type: cell-based, human; details: up to 5 μM, XTT 48 h
Protocol: A: Primary RCC cells (TF and CC) and normal renal cells (15S) were treated with compound #1 (1 to 5 μM) for 48 h. Cell viability was measured by XTT assays;
as §1
The biological effects of compound #1 on primary RCC tumors cells and normal renal cells harvested from patients suffering from kidney cancer have been explored (FIG. 4).

TF and CC cells = test: FACS apoptosis markers, primary RCC cells; assay type: cell-based, human; details: 1 μM, 48 h
Protocol: (§4) C: Primary RCC cells (TF and CC) and normal renal cells (15S) were treated with compound #1 (1 to 5 μM) for 48 h. Cells were stained with the PI/annexin-V-fluos staining kit according to the manufacturer's indications. Histograms show both annexin-V+/PI− cells (open bars) and annexin-V+/PI+ cells (filled bars). *P<0.05; **P<0.01; ***P<0.001.
as §3

healthy cells 15S = test: FACS apoptosis markers, normal renal cells; assay type: cell-based, human; details: 48 h
Protocol: as §4, §3

[3] = tested on: CXCL7-dependent HuVEC migration; test: Boyden chamber migration assay, CXCL7-dependent; assay type: cell-based; details: CXCL7 (50 ng/ml), 24 hr
Protocol: CXCL7 or VEGFA-stimulated chemotaxis assays were monitored using modified Boyden chambers containing polycarbonate membranes (8-μm pores, Transwell; Corning, Sigma). Cells were seeded on the upper side of the filters and chambers were placed on 24-well plates containing CXCL7 (50 ng/ml) or VEGFA (50 ng/ml). Cells were allowed to migrate for 24 hr at 37° C. in 5% CO2. Migratory cells on the lower membrane surface were fixed in 3% paraformaldehyde, stained with 0.1% crystal violet.

DAOY and HD-MB03 cells = test: Proliferation test, medulloblastoma cells; assay type: cell-based; details: 1 μM, cell counts days 1 to 8, vs DMSO
Protocol: FIG. 7: Inhibition of proliferation of medulloblastoma cells by compound #1. Cells were treated or not with 1 μM compound #1 for the indicated days. Cells were counted at the indicated days. * p<0.05; ** p<0.01; *** p<0.001.
1500 DAOY and HD-MB03 cells were seeded in a 6-well plate with or without treatment (1 μM of compound #1 or DMSO as control “CONT”), at 37° C. in a 5% CO2 incubator. Cells were dissociated using trypsone 1X-EDTA (Gibco® Life Technologies) and were counted with Coulter Beckman® counter (Villepinte) at days 1, 4, 6, 7, and 8. Each assay was performed in triplicate.

SMILES: O=C(Nc1cccc(Cl)c1)Nc1nc2ccc([N+](=O)[O-])cc2s1 [Compound #1, 1-(3-chlorophenyl)-3-(6-nitrobenzo[d]thiazol-2-yl)urea]
- time of treatment to total inhibition of proliferation (CAL27RR; Cal27R cells, 2.5 μM, XTT 24 h to 96 h): approximately 70 hours
- EC50 (CAL27RR; Homo sapiens, light or radiation study, XTT assay (48 h), resistant to irradiation and cisplatin, standard deviation of 10%, read-out: EC50 (μM) Head and Neck CAL27RR): 2 µM
- EC50 (OCI-AML3): 4 µM
- EC50 (MolM14): 4 µM
- early (AV) and late (PI) apoptosis markers on malignant cells [1]: cytotoxic effect on malignant cells; also recorded: more efficient than compound #2
- caspase-3 activity (caspase-3 activity): significantly strengthened
- effect on primary normal kidney cells (15S) [2]: no effect
- apoptosis markers in TF and CC cells (TF and CC cells): puts into exergue the apoptosis markers in TF and CC cells
- apoptosis markers in healthy cells 15S (healthy cells 15S): not the case with healthy cells 15S
- decrease of HuVECs motility [3]: more than 50%
- proliferation of DAOY and HD-MB03 cells (DAOY and HD-MB03 cells): significatively reduces the proliferation
